“And” between values parts separate entries of the source, which are not always exact repeats. Equal values may be shown once. Inconclusive results and toxic doses are left out.
System: P388 leukemia ip, CD2F1 mice, survival T/C
Test: NCI In Vivo Anticancer Drug Screen. Data for tumor model P388 Leukemia (intraperitoneal) in CD2F1 (CDF1) mice
Settings: endpoint: median survival time, higher = longer survival
How it was run: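 Mice carrying the transplanted tumor received test compound or vehicle. Survival was recorded in each group, and the value is the treated-group measurement divided by that of the vehicle-treated control group.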

[1] = dose: 12.5 mg/kg/injection, schedule: Q01DX009 (ip), vehicle: Klucel (hydroxypropylcellulose) (HPC)
[2] = dose: 25.0 mg/kg/injection, schedule: Q01DX009 (ip), vehicle: Klucel (hydroxypropylcellulose) (HPC)
[3] = dose: 50.0 mg/kg/injection, schedule: Q01DX005 (ip), vehicle: saline with Tween-80
[4] = dose: 100.0 mg/kg/injection, schedule: Q01DX005 (ip), vehicle: saline with Tween-80
[5] = dose: 200.0 mg/kg/injection, schedule: Q01DX005 (ip), vehicle: saline with Tween-80
[6] = dose: 60.0 mg/kg/injection, schedule: Q01DX005 (ip), vehicle: saline with Tween-80
[7] = dose: 120.0 mg/kg/injection, schedule: Q01DX005 (ip), vehicle: saline with Tween-80
[8] = dose: 240.0 mg/kg/injection, schedule: Q01DX005 (ip), vehicle: saline with Tween-80
[9] = dose: 6.25 mg/kg/injection, schedule: Q04DX003 (ip), vehicle: saline
[10] = dose: 12.5 mg/kg/injection, schedule: Q04DX003 (ip), vehicle: saline
[11] = dose: 25.0 mg/kg/injection, schedule: Q04DX003 (ip), vehicle: saline
[12] = dose: 6.25 mg/kg/injection, schedule: Q01DX009 (ip), vehicle: water
[13] = dose: 12.5 mg/kg/injection, schedule: Q01DX009 (ip), vehicle: water
[14] = dose: 25.0 mg/kg/injection, schedule: Q01DX009 (ip), vehicle: water
[15] = dose: 50.0 mg/kg/injection, schedule: Q01DX009 (ip), vehicle: water
[16] = dose: 50.0 mg/kg/injection, schedule: Q01DX009 (ip), vehicle: saline
[17] = dose: 100.0 mg/kg/injection, schedule: Q01DX009 (ip), vehicle: saline
[18] = dose: 100.0 mg/kg/injection, schedule: Q01DX001 (ip), vehicle: saline with Tween-80
[19] = dose: 200.0 mg/kg/injection, schedule: Q01DX001 (ip), vehicle: saline with Tween-80
[20] = dose: 400.0 mg/kg/injection, schedule: Q01DX001 (ip), vehicle: saline with Tween-80

## C1CCC2[N-]CC3CCCCC3[N-]CC3CCCCC3[N-]CC3CCCCC3[N-]CC2C1.[Cu+2].[O-][Cl+3]([O-])([O-])O (stereo unspecified)
dose: 0.78 mg/kg/injection, schedule: Q01DX009 (ip), vehicle: Klucel (hydroxypropylcellulose) (HPC)
  T/C: 117 % of control
dose: 6.25 mg/kg/injection, schedule: Q01DX009 (ip), vehicle: saline with Tween-80
  T/C: 152 % of control
dose: 8.0 mg/kg/injection, schedule: Q01DX009 (ip), vehicle: saline with Tween-80
  T/C: 154 % of control
[1]
  T/C: 87 % of control
dose: 12.5 mg/kg/injection, schedule: Q01DX009 (ip), vehicle: saline with Tween-80
  T/C: 158 % of control
[2]
  T/C: 87 % of control

## CC(C)(C)OC(=O)N[C@@H](CNOCc1ccccc1)C(N)=O
[3]
  T/C: 92 % of control
[4]
  T/C: 92 % of control
[5]
  T/C: 86 % of control

## CSc1nnc(N)s1
dose: 50.0 mg/kg/injection, schedule: Q01DX009 (ip), vehicle: saline with Tween-80
  T/C: 106 % of control
dose: 100.0 mg/kg/injection, schedule: Q01DX009 (ip), vehicle: saline with Tween-80
  T/C: 93 % of control
dose: 200.0 mg/kg/injection, schedule: Q01DX009 (ip), vehicle: saline with Tween-80
  T/C: 100 % of control

## C=C1CC2(CCCCC2C)OC1=O (stereo unspecified)
dose: 100.0 mg/kg/injection, schedule: Q01DX001 (ip), vehicle: saline
  T/C: 101 % of control
dose: 200.0 mg/kg/injection, schedule: Q01DX001 (ip), vehicle: saline
  T/C: 101 % of control
dose: 400.0 mg/kg/injection, schedule: Q01DX001 (ip), vehicle: saline
  T/C: 100 % of control

## O=C1Nc2ccccc2/C1=N\N=c1/scc(-c2ccccc2)n1-c1ccccc1
[6]
  T/C: 101 % of control and 89 % of control
[7]
  T/C: 100 % of control
[8]
  T/C: 101 % of control and 97 % of control

## C=CC(=NC(C)(C)C)Nc1cccc(Cl)c1
[9]
  T/C: 98 % of control
[10]
  T/C: 102 % of control
[11]
  T/C: 100 % of control

## COC(=O)C(C)NC(=O)C(C)NC(=O)c1ccc(OC)cc1 (stereo unspecified)
dose: 100.0 mg/kg/injection, schedule: Q04DX002 (ip), vehicle: saline with Tween-80
  T/C: 105 % of control
dose: 200.0 mg/kg/injection, schedule: Q04DX002 (ip), vehicle: saline with Tween-80
  T/C: 99 % of control
dose: 400.0 mg/kg/injection, schedule: Q04DX002 (ip), vehicle: saline with Tween-80
  T/C: 91 % of control

## CCN(CC)CCCC(C)NC(C)CCCN(CC)CC (stereo unspecified)
dose: 3.13 mg/kg/injection, schedule: Q01DX009 (ip), vehicle: water
  T/C: 112 % of control
[12]
  T/C: 112 % of control
[13]
  T/C: 99 % of control
[14]
  T/C: 108 % of control
[15]
  T/C: 104 % of control

## COC(=O)C1CCCCC1C(=O)OC (stereo unspecified)
dose: 12.5 mg/kg/injection, schedule: Q01DX009 (ip), vehicle: saline
  T/C: 108 % of control
dose: 25.0 mg/kg/injection, schedule: Q01DX009 (ip), vehicle: saline
  T/C: 104 % of control and 111 % of control
[16]
  T/C: 104 % of control
[17]
  T/C: 100 % of control and 101 % of control (2×)
dose: 200.0 mg/kg/injection, schedule: Q01DX009 (ip), vehicle: saline
  T/C: 110 % of control

## COc1cc2c(cc1O)CC1c3c(cc(O)c(OC)c3-2)CCN1C (stereo unspecified)
[3]
  T/C: 98 % of control
[4]
  T/C: 87 % of control

## C[N+](C)(C)C1(Cc2ccccc2)c2ccccc2-c2ccc(Cl)cc21 (stereo unspecified)
[1]
  T/C: 107 % of control
[2]
  T/C: 105 % of control
dose: 50.0 mg/kg/injection, schedule: Q01DX009 (ip), vehicle: Klucel (hydroxypropylcellulose) (HPC)
  T/C: 108 % of control and 94 % of control

## Cc1ccc(C(=O)/C(N)=C\c2c[nH]c3ccccc23)cc1
[18]
  T/C: 104 % of control
[19]
  T/C: 100 % of control
[20]
  T/C: 98 % of control

## C/C(C(=O)c1ccccc1)=C1/NC(C)(C)CO1
[6]
  T/C: 101 % of control
[7]
  T/C: 103 % of control
[8]
  T/C: 101 % of control

## O=C1c2cccc3cccc(c23)C(=O)N1CCNCCN1C(=O)c2cccc3cccc(c23)C1=O
[6]
  T/C: 91 % of control
[8]
  T/C: 88 % of control

## C(=P(c1ccccc1)(c1ccccc1)c1ccccc1)[P+](c1ccccc1)(c1ccccc1)c1ccccc1
dose: 3.12 mg/kg/injection, schedule: Q01DX009 (ip), vehicle: saline
  T/C: 111 % of control
dose: 3.12 mg/kg/injection, schedule: Q01DX009 (ip), vehicle: suspension in saline
  T/C: 111 % of control
dose: 6.25 mg/kg/injection, schedule: Q01DX009 (ip), vehicle: saline
  T/C: 104 % of control
dose: 6.25 mg/kg/injection, schedule: Q01DX009 (ip), vehicle: suspension in saline
  T/C: 112 % of control
dose: 12.5 mg/kg/injection, schedule: Q01DX009 (ip), vehicle: suspension in saline
  T/C: 119 % of control

## O=C1OC(=O)C2C3C=CC(C3)C12 (stereo unspecified)
dose: 12.5 mg/kg/injection, schedule: Q01DX009 (ip), vehicle: saline sonified
  T/C: 100 % of control
dose: 25.0 mg/kg/injection, schedule: Q01DX009 (ip), vehicle: saline sonified
  T/C: 100 % of control
dose: 50.0 mg/kg/injection, schedule: Q01DX009 (ip), vehicle: saline sonified
  T/C: 100 % of control

## CC1(C)CCCC2(C)C3=C(CCC12)C(=O)OC3 (stereo unspecified)
dose: 25.0 mg/kg/injection, schedule: Q01DX005 (ip), vehicle: Klucel (hydroxypropylcellulose) (HPC)
  T/C: 101 % of control
dose: 50.0 mg/kg/injection, schedule: Q01DX005 (ip), vehicle: Klucel (hydroxypropylcellulose) (HPC)
  T/C: 102 % of control
dose: 100.0 mg/kg/injection, schedule: Q01DX005 (ip), vehicle: Klucel (hydroxypropylcellulose) (HPC)
  T/C: 100 % of control
dose: 200.0 mg/kg/injection, schedule: Q01DX005 (ip), vehicle: Klucel (hydroxypropylcellulose) (HPC)
  T/C: 100 % of control

## Cc1cc(O)c2c(O)c(-c3ccc4cc(C)cc(O)c4c3O)ccc2c1
[16]
  T/C: 104 % of control
[17]
  T/C: 112 % of control

## Cc1c(-c2ccccc2)oc(=O)c(Cl)c1N(C)c1ccccc1
[18]
  T/C: 94 % of control
[19]
  T/C: 99 % of control
[20]
  T/C: 91 % of control

## C[CH2][Sn]([F])([F])[CH2]C
[9]
  T/C: 107 % of control
[10]
  T/C: 108 % of control
[11]
  T/C: 116 % of control

## COc1cc(/C=C2/Nc3ccc(Cl)cc3NC2=O)ccc1O
[6]
  T/C: 93 % of control
[7]
  T/C: 98 % of control
[8]
  T/C: 96 % of control

## O=C1CCC(Cc2ccc(I)cc2)C(=O)N1 (stereo unspecified)
[18]
  T/C: 101 % of control
[19]
  T/C: 100 % of control
[20]
  T/C: 95 % of control

## OCC1OC2OC3C(CO)OC(OC4C(CO)OC(OC5C(CO)OC(OC6C(CO)OC(OC7C(CO)OC(OC1C(O)C2O)C(O)C7O)C(O)C6O)C(O)C5O)C(O)C4O)C(O)C3O (stereo unspecified) (tested in a mixture with another compound)
dose: 3.12 mg/kg/injection, schedule: Q01DX009 (ip), vehicle: water
  T/C: 105 % of control
[12]
  T/C: 108 % of control
[13]
  T/C: 105 % of control
[14]
  T/C: 122 % of control and 111 % of control and 115 % of control
[15]
  T/C: 109 % of control and 111 % of control and 123 % of control
dose: 200.0 mg/kg/injection, schedule: Q01DX009 (ip), vehicle: water
  T/C: 164 % of control
dose: 400.0 mg/kg/injection, schedule: Q01DX009 (ip), vehicle: water
  T/C: 250 % of control

## CNC(=O)OCc1nc(-c2ccccc2)n(C)c1COC(=O)NC
dose: 12.5 mg/kg/injection, schedule: Q01DX005 (ip), vehicle: distilled water + Tween-80
  T/C: 98 % of control
dose: 25.0 mg/kg/injection, schedule: Q01DX005 (ip), vehicle: distilled water + Tween-80
  T/C: 107 % of control
dose: 50.0 mg/kg/injection, schedule: Q01DX005 (ip), vehicle: distilled water + Tween-80
  T/C: 112 % of control
dose: 100.0 mg/kg/injection, schedule: Q01DX005 (ip), vehicle: distilled water + Tween-80
  T/C: 116 % of control
dose: 200.0 mg/kg/injection, schedule: Q01DX005 (ip), vehicle: distilled water + Tween-80
  T/C: 119 % of control

## CSCCC(NC(=O)OC(C)(C)C)C(=O)ON1C(=O)CCC1=O (stereo unspecified)
dose: 12.5 mg/kg/injection, schedule: Q01DX005 (ip), vehicle: saline with Tween-80
  T/C: 101 % of control and 107 % of control
dose: 25.0 mg/kg/injection, schedule: Q01DX005 (ip), vehicle: saline with Tween-80
  T/C: 103 % of control and 107 % of control
[3]
  T/C: 117 % of control and 98 % of control
[4]
  T/C: 106 % of control and 113 % of control and 116 % of control
[5]
  T/C: 107 % of control and 97 % of control

## CC[n+]1ccc(Nc2ccc(/C=C/c3ccc4cc(Nc5cc[n+](CC)cc5)ccc4[n+]3CC)cc2)cc1
dose: 3.3 mg/kg/injection, schedule: Q04DX003 (ip), vehicle: saline sonified
  T/C: 113 % of control
